In paper PMC5678585, “Screening a protein kinase inhibitor library against Plasmodium falciparum” (Malaria Journal, 2017):
Like-named read-outs stand apart in the source and are kept apart here.

Columns and labels:
in vitro = assay type: cell-based; conditions: human, MRC-5 pd30 normal diploid fibroblasts (monolayers); Table 8, MMV03 SAR; read-out: MRC5 EC50
Method: (§1) Cells were plated and incubated overnight to allow them to adhere as monolayers. A working stock of each test compound was transferred to an intermediate 384-well plate and pre-diluted with minimum essential media (MEM). The pre-diluted stocks were then transferred onto the cell monolayers, and the plates were incubated for 68 h. Resazurin, to a final concentration of 50 μM was added to each well, after which plates were incubated for a further 3 h and measured for fluorescence (λ ex = 528 nm, λ em = 590 nm).
(§2) All data were processed using IDBS ActivityBase. […] The formula used to calculate Z’ is 1-3×(StDev_high+StDev_low)/ABS(Mean_high-Mean_low) .
(§3) All EC50 Curve fitting was undertaken using XLFit version 4.2 using Model 205 with the following 4 parametric equation: y=A+B-A/1+[…], where A = % inhibition at bottom, B = % inhibition at top, C = EC50, D = slope, x = inhibitor concentration and y = % inhibition.

[1] = system: Plasmodium falciparum 3D7; assay: microbe, parasite or virus in culture
Method: Growth inhibition was quantified using a fluorescence assay utilizing the binding of SYBR Green I to double stranded DNA, which emits a fluorescent signal at 528 nm after excitation at 485 nm. The SYBR Green assay system was adapted to maximize robustness and to align with available automation systems. The Prestwick Library then used as a pilot screen to validate the performance of the optimized assay. […] Single point screens were carried out, and the potency of compounds of interest was determined in duplicate on two independent occasions. A 96-well [^3H]-Hypoxanthine incorporation assay was also developed as a secondary assay in order to validate key compounds from each hit series in an orthogonal platform.
as §2
Two independent assays were run.

[2] = system: normal diploid human fibroblasts (MRC-5 pd30); conditions: read-out: MRC5 EC50, cited from earlier work
[3] = system: normal diploid human fibroblasts (MRC-5 pd30); assay: in vitro; assay type: cell-based
Method: as §1, §2, §3

Plasmodium falciparum = assay: [3H]-Hypoxanthine incorporation assay (orthogonal, radiometric); assay type: cell-based
Method: Cultures of 3D7, a P. falciparum chloriquine sensitive reference strain, were maintained in a 5% suspension of A+ human red blood cells (obtained from East of Scotland Blood Transfusion Service, Ninewells Hospital, Dundee, UK) cultured in RPMI 1640 medium (pH 7.3) supplemented with 0.5% Albumax II (Gibco Life Technologies, San Diego, CA, USA), 12 mM sodium bicarbonate, 0.2 mM hypoxanthine, and 20 mg/l gentamicin at 37 °C, in a humidified atmosphere of 1% O2, 3% CO2 with a balance of nitrogen. Growth inhibition was quantified using a fluorescence assay utilizing the binding of SYBR Green I to double stranded DNA, which emits a fluorescent signal at 528 nm after excitation at 485 nm. The SYBR Green assay system was adapted to maximize robustness and to align with available automation systems. The Prestwick Library then used as a pilot screen to validate the performance of the optimized assay. […] Single point screens were carried out, and the potency of compounds of interest was determined in duplicate on two independent occasions. A 96-well [^3H]-Hypoxanthine incorporation assay was also developed as a secondary assay in order to validate key compounds from each hit series in an orthogonal platform.
The traditionally used [^3H]-hypoxanthine incorporation assay is labour intensive, low throughput and requires the use of radio-labelled hypoxanthine.

[4] = system: Plasmodium falciparum 3D7; conditions: Table 7, MMV04 SAR; data reported previously ref 24, 25; read-out: P. fal. EC50; cited from earlier work
[5] = Plasmodium falciparum, 3D7, read-out: P. fal. EC50
[6] = Table 4, primary hits of kinase library, read-out: EC50 MRC5 cells
[7] = Table 6, MMV02 SAR, read-out: MRC5 EC50
[8] = C.I. 95%, n = 2, read-out: EC50 Radiometric ([3H]-hypoxanthine)
[9] = read-out: EC50 Fluorescent (SYBR Green), C.I. 95%, n = 4
[10] = read-out: EC50 P. falciparum, Table 4, primary hits of kinase library
[11] = read-out: P. fal. EC50, Table 6, MMV02 SAR
[12] = Table 7, MMV04 SAR, read-out: MRC5 EC50
[13] = read-out: P. fal. EC50, Table 7, MMV04 SAR
[14] = Table 8, MMV03 SAR, read-out: MRC5 EC50
[15] = read-out: P. fal. EC50, Table 8, MMV03 SAR

SMILES: Cn1cc(C(=O)Nc2cccnc2)c(-c2cccs2)n1 [Compound A0044]
- EC50 at 68 h (in vitro): > 50000 nM
- EC50 [1, 5]: > 50000 nM
- LLE (ligand-lipophilicity efficiency) ([1]; Table 8, MMV03 SAR): 2

SMILES: O=C(Nc1nc2ccccc2[nH]1)c1cn(-c2ccccc2)nc1-c1cccs1 [Compound A0034]
- EC50 at 68 h (in vitro): 13000 nM
- EC50 [1, 5]: 800 nM
- LLE (ligand-lipophilicity efficiency) ([1]; Table 8, MMV03 SAR): 2

SMILES: Fc1ccccc1-c1cc(Nc2ccncc2)nc(-c2ccccc2)n1 [Compound A0021]
- EC50 ([2]; Table 6, MMV02 SAR, data reported previously ref 23): > 50000 nM

SMILES: Fc1ccc(-c2cc(Nc3ccncc3)nc(-c3ccccc3)n2)cc1 [Compound A0002]
- EC50 [3, 6]: 6000 nM
- EC50 [3, 7]: 6000 nM
- EC50 (Plasmodium falciparum; [8]): 60 ± 70 nM
- EC50 [1, 9]: 230 ± 40 nM
- EC50 [1, 10]: 200 nM
- EC50 [1, 11]: 200 nM

SMILES: COc1cc(NC(=O)c2cc(-c3cccnc3)nc3ccc(Br)cc23)cc(OC)c1 [Compound A0410]
- EC50 [3, 12]: > 50000 nM
- EC50 [1, 13]: 740 nM

SMILES: O=C(Nc1cccnc1)c1cc(-c2cccnc2)nc2ccc(Br)cc12 [Compound A0004]
- EC50 [3, 6]: > 15000 nM
- EC50 [3, 12]: > 15000 nM
- EC50 (Plasmodium falciparum; [8]): 410 ± 470 nM
- EC50 [1, 9]: 700 ± 70 nM
- EC50 [1, 10]: 700 nM
- EC50 [1, 13]: 700 nM

SMILES: CC(C)(C)n1cc(C(=O)Nc2nc3ccccc3[nH]2)c(-c2cccnc2)n1 [Compound A0043]
- EC50 at 68 h (in vitro): > 50000 nM
- EC50 [1, 5]: 14000 nM
- LLE (ligand-lipophilicity efficiency) ([1]; Table 8, MMV03 SAR): 1.2

SMILES: FC(F)(F)Oc1ccc(Nc2cc(-c3cccc(C(F)(F)F)c3)nc(-c3ccccc3)n2)cc1 [Compound A0022]
- EC50 [3, 7]: 11000 nM
- activity against P. falciparum relative to A0002 ([1]; MMV02 series): tenfold less active
- EC50 [1, 11]: 2300 nM

SMILES: CCOC(=O)c1ccc(NC(=O)c2cc(-c3cccnc3)nc3ccc(Cl)cc23)cc1 [Compound A0024]
- EC50 [3, 12]: 18000 nM
- EC50 [1, 13]: 200 nM

SMILES: Cc1ccc(-c2cc(C(=O)Nc3cccnc3)c3cc(Br)ccc3n2)cc1 [Compound A0031]
- EC50 ([2]; Table 7, MMV04 SAR, data reported previously ref 24, 25): 20000 nM
- EC50 [4]: 120 nM
- activity against P. falciparum relative to A0004 ([1]; MMV04 series): fivefold more active

SMILES: Cc1nn(-c2ccccc2)cc1C(=O)Nc1cccnc1 [Compound A0040]
- EC50 at 68 h (in vitro): 50000 nM
- EC50 [1, 5]: 10000 nM
- LLE (ligand-lipophilicity efficiency) ([1]; Table 8, MMV03 SAR): 2.8

SMILES: O=C(Nc1nc2ccccc2[nH]1)c1cn(-c2ccccc2)nc1-c1cccnc1 [Compound A0032]
- EC50 [3, 14]: 21000 nM
- LLE (ligand-lipophilicity efficiency) ([1]; Table 8, MMV03 SAR): 2.9
- EC50 [1, 15]: 500 nM

SMILES: O=C(Nc1cccnc1)c1cn(-c2ccccc2)nc1-c1cccs1 [Compound A0003]
- EC50 [3, 6]: > 15000 nM
- EC50 [3, 14]: > 50000 nM
- EC50 (Plasmodium falciparum; [8]): 150 ± 250 nM
- LLE (ligand-lipophilicity efficiency) ([1]; Table 8, MMV03 SAR): 3.2
- EC50 [1, 9]: 590 ± 120 nM
- EC50 [1, 10]: 600 nM
- EC50 [1, 15]: 300 nM

SMILES: N#Cc1ccc(-n2cc(C(=O)Nc3nc4ccccc4[nH]3)c(-c3cccnc3)n2)cc1 [Compound A0041]
- EC50 [3, 14]: 15000 nM
- LLE (ligand-lipophilicity efficiency) ([1]; Table 8, MMV03 SAR): 3.2
- EC50 [1, 15]: 400 nM

SMILES: O=C(Nc1cccnc1)c1cn(-c2ccccc2)nc1-c1cccnc1 [Compound A0038]
- EC50 [3, 14]: 18000 nM
- LLE (ligand-lipophilicity efficiency) ([1]; Table 8, MMV03 SAR): 3.2
- EC50 [1, 15]: 2000 nM

SMILES: O=C(Nc1cccnc1)c1cc(-c2cccnc2)nc2ccc(Cl)cc12 [Compound A0421]
- EC50 [3, 12]: > 50000 nM
- EC50 [1, 13]: 380 nM

SMILES: O=C(Nc1ccncc1)c1cn(-c2ccccc2)nc1-c1cccs1 [Compound A0033]
- EC50 [3, 14]: 39000 nM
- LLE (ligand-lipophilicity efficiency) ([1]; Table 8, MMV03 SAR): 2.9
- EC50 [1, 15]: 700 nM

SMILES: CC(C)CCNC(=O)c1cn(-c2ccccc2)nc1-c1cccs1 [Compound A0036]
- EC50 [3, 14]: 50000 nM
- LLE (ligand-lipophilicity efficiency) ([1]; Table 8, MMV03 SAR): 1.1
- EC50 [1, 15]: 18000 nM

SMILES: CC(C)c1nn(-c2ccccc2)cc1C(=O)Nc1cccnc1 [Compound A0039]
- EC50 at 68 h (in vitro): 50000 nM
- EC50 [1, 5]: 21000 nM
- LLE (ligand-lipophilicity efficiency) ([1]; Table 8, MMV03 SAR): 2.1

SMILES: OC(c1cc(C(F)(F)F)nc2c(C(F)(F)F)cccc12)C1CCCCN1 (stereo not shown) [Mefloquine, reference compound]
- EC50 (Plasmodium falciparum; Plasmodium falciparum, [3H]-hypoxanthine incorporation assay, read-out: EC50): 7 to 10 nM
- EC50 ([1]; Plasmodium falciparum, 3D7): 48 ± 4 nM

SMILES: O=C(Nc1nc2ccccc2[nH]1)c1cn(-c2ccc(F)cc2)nc1-c1cccnc1 [Compound A0042]
- EC50 [3, 14]: 14000 nM
- LLE (ligand-lipophilicity efficiency) ([1]; Table 8, MMV03 SAR): 2.8
- EC50 [1, 15]: 600 nM
